Results from US20060182683A1, “Methods for reduced renal uptake of protein conjugates” (Center for Molecular Medicine and Immunology, priority 1995, published 2006).

Assays:
BALB/c mice = test: Kidney uptake and biodistribution of 99mTc-Fab′ NP-4 under lysine treatment; assay type: in vivo; conditions: for Kidney uptake, % of contr.: L-lysine 2000 μg/g
Description: (§1) After cervical dislocation, the animals were dissected.
(§2) L-lysine was injected i.p. in hourly intervals from 30 min before until 3 h after intravenous antibody injections (−30′, 1 h, 2 h, 3 h p.i.). […] At doses above this threshold, a strong dose-effect relationship was found. At 4×2000 μg/g, kidney uptake was reduced to 19±1% of the untreated control group at 4 h p.i.

[1] = system: GW39 colonic cancer xenograft bearing nude mice; test: Biodistribution of anti-CEA 99mTc-Fab′ NP-4 under L-lysine / poly-L-lysine treatment; assay type: in vivo
Description: as §1

mice [2] = test: Kidney uptake and dosimetry of yttrium-labeled F(ab′)2 of anti-CD22 LL2 under L-lysine; assay type: in vivo; conditions: Lys treated
mice [3] = test: Kidney uptake of 111In- and 88Y-labeled F(ab)2 fragments of MN-14; assay type: in vivo
Description: as §1

[4] = system: nude mice bearing GW39 colonic cancer xenografts; test: Kidney uptake and dosimetry of 188Re-Fab′ Mu-9 under L-lysine treatment; assay type: in vivo
Description: as §1
No effect on the uptake in the tunor or other organs was observed.

mice [5] = test: Kidney uptake of 125I-labeled Fab′ NP-4 and dosimetry for 131I-labeled Fab′ under L-lysine; assay type: in vivo
Description: as §1

mice [6] = test: Maximum tolerated dose and toxicity of lysine and poly-lysine; assay type: in vivo
Description: Comparison of the results in the control mice with those in the mice that receive the lysine and/or poly-lysine allows determination of the optimal dosage required to achieve the desired effect on kidney uptake of radioactivity. Determination of the dosage of lysine and/or poly-lysine that can be tolerated before toxic effects are observed can be achieved by physiological examination and histological observation of organs by methods. The optimal dosages of lysine and/or poly-lysine that are determined using the mouse model are used to guide the determination of appropriate dosage levels in human subjects using a standard dosage escalation regimen. Methods for determining effective dosages of lysine and/or poly-lysine for reducing kidney uptake are further illustrated in the Examples, below.
as §2

[7] = system: GW39 colonic cancer xenograft bearing nude mice; test: Dosimetry of 111In/88Y-Bz-DTPA-Fab′ MN-14 under L-lysine treatment; assay type: in vivo; conditions: L-lysine four times 2000 μg/g i.p.
Description: as §1
To test the effectiveness of L-lysine in reduction of kidney uptake of indium and yttrium-labeled Fab′ fragments, a mixture of ^111In and ^88Y-labeled Fab′ fragments of the anti-CEA antibody MN-14 were injected into GW39 colon carcinoma bearing nude mice (injected with four times 2000 μg/g L-lysine; the control group were untreated). FIG. 4 and Table 4 suns the results.

mice [8] = test: Biodistribution of 99mTc-Fab′ NP-4 under poly-L-lysine of different molecular weight and lysine/poly-lysine mixtures; conditions: for Blood level of 99mTc-Fab′ NP-4 / Kidney uptake of 99mTc-Fab′ NP-4 / Kidney uptake, % control / Liver uptake of 99mTc-Fab′ NP-4 / Lungs uptake of 99mTc-Fab′ NP-4 / Spleen uptake of 99mTc-Fab′ NP-4: 4 h p.i.
Description: Female BALB/c mice, 19 to 22 g of weight, 4 to 5 weeks of age (Charles River Laboratories, Boston, Mass.) were used as non-tumor-bearing animals. For a human tumor xenograft model, the human colon carcinoma cell line GW39 (Primus et al supra) was grown subcutaneously in 5- to 6-week-old female athymic mice (Harlan, Madison, Wis.). Animals were injected intravenously into the tail vein with approximately 5-10 μg of antibody fragment protein (i.e., 25-40 μCi of ^99mTc, ^188Re, and ^111In, resp.; 4 μCi of ^88Y, and 10 μCi of ^125I, respectively).
The mice were sacrificed after 4 h and 24 h for ^99mTc-labeled antibodies, and after 4, 24, 72, 96 and 168 h for ^125I, ^111In, ^88Y and ^188Re-labeled antibodies. Mice were sacrificed by anesthesia with sodium pentobarbital and bled by cardiac puncture. After cervical dislocation, the animals were dissected. Radioactivity in the tumors and tissues (liver, spleen, kidney, lung, intestine, blood and bone) was determined by gamma scintillation counting using an injection standard to correct for physical decay.
L-lysine, D-lysine and L-arginine monohydrochloride salts (Sigma, St. Louis, Mo.) were dissolved in phosphate-buffered saline (PBS) at a concentration of 160 mg/ml. L-lysine ethyl ester dihydrochloride was dissolved in PBS to yield a concentration of 80 mg/ml. Poly-L-lysine (1-4 kDa and 15-30 kDa) were used as hydrochloride salts at concentration of 25 mg/ml and 10 mg/ml, respectively.
Animals were injected with the lysine and/or poly-lysine solutions intraperitoneally in amounts and at frequencies as shown below. Human patients were infused intravenously over a three-hour period with 1.5 liters of a commercially available amino acid solution starting 15 min before the antibody injection. The data of a total of 77 patients examined with ^99mTc-labeled anti-CEA Fab′ (NP-4: n=19; F023C5: n=58) were taken as controls (infused with the same volume of 0.9% saline instead of the amino acid solution).
To attempt to reduce the necessity of frequent injections of the kidney uptake reducing agent, polymeric substances of higher molecular weight were investigated.
To reach maximal effectiveness with as few injections as possible, combinations of lysine and poly-lysine were tested.

[9] = 131I-Fab′ NP-4, L-lysine 4 × 2 mg/g
[10] = poly-L-lys 0.15 mg/g i.v. at −30′, 4 h p.i.
[11] = poly-L-lys 0.15 mg/g i.v. at −30′, 24 h p.i.
[12] = 1-4 kD, 100 μg/g once 30′ before antibody
[13] = 1-4 kD, 200 μg/g once 30′ before antibody
[14] = 1-4 kD, 300 μg/g once 30′ before antibody
[15] = 15-30 kD, 10 μg/g once 30′ before antibody
[16] = 15-30 kD, 20 μg/g once 30′ before antibody
[17] = poly-L-lysine administered twice (30′ before and 1 h after antibody), first treated column, dose and size not given
[18] = poly-L-lysine administered twice (30′ before and 1 h after antibody), second treated column, dose and size not given

NCCCC[C@@H](N)C(=O)O [D-lysine]
lowering of kidney uptake compared with L-lysine (BALB/c mice; four hourly injections i.p., same conditions as L-lysine): equally as effective as the L-isomer

NCCCC[C@H](N)C(=O)O [L-lysine]
Kidney uptake, % of contr. ([1]; L-lysine 0.5 mg/g i.p. at −30′, 1, 2, 3 h, 4 h p.i.): 63.0 % of contr.
Kidney uptake, % of contr. ([1]; L-lysine 0.5 mg/g i.p. at −30′, 1, 2, 3 h, 24 h p.i.): 70.0 % of contr.
Kidney uptake, % of contr. ([1]; L-lysine 2 mg/g i.p. at −30′, 1, 2, 3 h, 4 h p.i.): 29.7 % of contr.
Kidney uptake, % of contr. ([1]; L-lysine 2 mg/g i.p. at −30′, 1, 2, 3 h, 24 h p.i.): 30.0 % of contr.
influence on the tumor uptake or uptake in any other organ than the kidneys ([1]; nude mice bearing human colonic xenografts): no significant influence
Kidney dose, % control (mice [2]): 50.9 % control
Kidney uptake, % control (mice [2]; 4 h p.i.): 58.5 % control
Kidney uptake, % control (mice [2]; 48 h p.i.): 49.6 % control
kidney uptake of 99mTc-Fab′ NP-4, % of the untreated control group (BALB/c mice; 4×2000 μg/g i.p. in hourly intervals, 4 h p.i.): 19±1%
Kidney uptake, % of contr. (BALB/c mice; injection 4x at −30′, 1, 2, 3 h, 4 h p.i.): 15.5 % of contr.
Kidney uptake, % of contr. (BALB/c mice; injection once at −30′, 4 h p.i.): 56.4 % of contr.
Kidney uptake, % of contr. (BALB/c mice; injection twice at −30′ and 1 h, 4 h p.i.): 44.1 % of contr.
effect on kidney uptake of 99mTc-Fab′ NP-4 (BALB/c mice; doses below four times 100 μg/g body weight, hourly intervals): no significant effect
persistence of uptake reduction of 99mTc-Fab′ (BALB/c mice; mouse, in vivo): 24 h
persistence of reduction of uptake (mice [3]; F(ab′)2 fragments): persisted for several days
kidney uptake of 111In- and 88Y-F(ab′)2, % of control (mice [3]; lysine treatment): approximately 30%
effect on the uptake in the tumor or other organs ([4]; 188Re-Fab′ Mu-9): No effect
lys/contr. dose ratio, Blood ([4]; 188Re-Fab′ Mu-9): 0.79
lys/contr. dose ratio, Bone ([4]; 188Re-Fab′ Mu-9): 0.89
lys/contr. dose ratio, GW39 ([4]; 188Re-Fab′ Mu-9): 1.23
lys/contr. dose ratio, Kidney ([4]; 188Re-Fab′ Mu-9): 0.39
lys/contr. dose ratio, Liver ([4]; 188Re-Fab′ Mu-9): 0.96
lys/contr. dose ratio, Lung ([4]; 188Re-Fab′ Mu-9): 0.76
lys/contr. dose ratio, Spleen ([4]; 188Re-Fab′ Mu-9): 0.94
effect on the tumor dose ([4]; 188Re-Mu-9 Fab′ dosimetry): no effect on the tumor dose could be observed
kidney dose, % of the renal dose in the control group ([4]; 188Re-Mu-9 Fab′ dosimetry): approximately 30%
kidney uptake of 188Re-Fab′ Mu-9, % of the untreated control ([4]; 4 h p.i.): 29%
kidney uptake of iodine-labeled Fab′, % of the nontreated control (mice [5]; 125I-Fab′ NP-4, 4 h p.i.): 38.7%
Lys/control dose ratio, Blood (mice [5]; [9]): 0.99
Lys/control dose ratio, Kidney (mice [5]; [9]): 0.51
Lys/control dose ratio, Liver (mice [5]; [9]): 0.94
Lys/control dose ratio, Lung (mice [5]; [9]): 0.95
Lys/control dose ratio, Spleen (mice [5]; [9]): 0.81
reduction of the absorbed dose to the kidney (mice [5]; calculated for a 131I-labeled Fab′ fragment): 50%
tolerability at the MTD (mice [6]; 4×2500 μg/g, monitored for three months): tolerated without any obvious short or long term toxicity
maximum tolerated dose (MTD) (mice [6]; 4× injected i.p. in hourly intervals): 2500 µg/g
toxicity at doses higher than the MTD (mice [6]; above 4×2500 μg/g): began to develop fluid in the body cavities
Kidney dose relative to control (100%), based on 88Y [7]: 18.8%
Kidney dose relative to control (100%), based on 111In [7]: 22.9%

Poly-L-lysine [poly-L-lysine (1-4 kD)]
Blood level of 99mTc-Fab′ NP-4 [1, 10]: 1.7 ± 0.2
GW39 uptake of 99mTc-Fab′ NP-4 [1, 10]: 3.0 ± 1.0
Kidney uptake of 99mTc-Fab′ NP-4 [1, 10]: 30.8 ± 6.0
Kidney uptake, % of contr. [1, 10]: 52.2 % of contr.
Liver uptake of 99mTc-Fab′ NP-4 [1, 10]: 1.5 ± 0.2
Lung uptake of 99mTc-Fab′ NP-4 [1, 10]: 3.1 ± 1.2
Spleen uptake of 99mTc-Fab′ NP-4 [1, 10]: 1.0 ± 0.1
Blood level of 99mTc-Fab′ NP-4 [1, 11]: 0.3 ± 0.0
GW39 uptake of 99mTc-Fab′ NP-4 [1, 11]: 2.2 ± 0.3
Kidney uptake of 99mTc-Fab′ NP-4 [1, 11]: 25.3 ± 5.7
Kidney uptake, % of contr. [1, 11]: 94.7 % of contr.
Liver uptake of 99mTc-Fab′ NP-4 [1, 11]: 0.9 ± 0.1
Lung uptake of 99mTc-Fab′ NP-4 [1, 11]: 0.8 ± 0.6
Spleen uptake of 99mTc-Fab′ NP-4 [1, 11]: 0.7 ± 0.1
Blood level of 99mTc-Fab′ NP-4 (mice [8]; [12]): 3.8 ± 0.1
Kidney uptake of 99mTc-Fab′ NP-4 (mice [8]; [12]): 95.5 ± 4.3
Kidney uptake, % control (mice [8]; [12]): 74.8 % control
Liver uptake of 99mTc-Fab′ NP-4 (mice [8]; [12]): 3.0 ± 0.2
Lungs uptake of 99mTc-Fab′ NP-4 (mice [8]; [12]): 5.9 ± 3.1
Spleen uptake of 99mTc-Fab′ NP-4 (mice [8]; [12]): 3.0 ± 0.4
Blood level of 99mTc-Fab′ NP-4 (mice [8]; [13]): 4.4 ± 0.5
Kidney uptake of 99mTc-Fab′ NP-4 (mice [8]; [13]): 80.5 ± 6.9
Kidney uptake, % control (mice [8]; [13]): 63.0 % control
Liver uptake of 99mTc-Fab′ NP-4 (mice [8]; [13]): 3.0 ± 0.4
Lungs uptake of 99mTc-Fab′ NP-4 (mice [8]; [13]): 3.9 ± 2.6
Spleen uptake of 99mTc-Fab′ NP-4 (mice [8]; [13]): 2.7 ± 0.4
Blood level of 99mTc-Fab′ NP-4 (mice [8]; [14]): 5.3 ± 1.4
Kidney uptake of 99mTc-Fab′ NP-4 (mice [8]; [14]): 67.9 ± 7.5
Kidney uptake, % control (mice [8]; [14]): 53.2 % control
Liver uptake of 99mTc-Fab′ NP-4 (mice [8]; [14]): 3.5 ± 0.8
Lungs uptake of 99mTc-Fab′ NP-4 (mice [8]; [14]): 5.6 ± 1.0
Spleen uptake of 99mTc-Fab′ NP-4 (mice [8]; [14]): 3.5 ± 0.4
kidney uptake reduction compared with the monomer (mice [8]; single i.p. injection): significantly lower doses than the monomer

Poly-L-lysine [poly-L-lysine (15-30 kD)]
kidney uptake reduction (mice [8]; 1×20 μg/g): 50%
Blood level of 99mTc-Fab′ NP-4 (mice [8]; [15]): 4.7 ± 0.3
Kidney uptake of 99mTc-Fab′ NP-4 (mice [8]; [15]): 73.9 ± 7.2
Kidney uptake, % control (mice [8]; [15]): 57.8 % control
Liver uptake of 99mTc-Fab′ NP-4 (mice [8]; [15]): 7.3 ± 3.7
Lungs uptake of 99mTc-Fab′ NP-4 (mice [8]; [15]): 6.8 ± 4.3
Spleen uptake of 99mTc-Fab′ NP-4 (mice [8]; [15]): 3.7 ± 0.4
Blood level of 99mTc-Fab′ NP-4 (mice [8]; [16]): 4.7 ± 0.2
Kidney uptake of 99mTc-Fab′ NP-4 (mice [8]; [16]): 55.7 ± 6.5
Kidney uptake, % control (mice [8]; [16]): 43.6 % control
Liver uptake of 99mTc-Fab′ NP-4 (mice [8]; [16]): 4.6 ± 0.7
Lungs uptake of 99mTc-Fab′ NP-4 (mice [8]; [16]): 7.9 ± 3.2
Spleen uptake of 99mTc-Fab′ NP-4 (mice [8]; [16]): 3.8 ± 0.3

Y labeled F(ab)2: 88Y-Bz-DTPA-labeled F(ab)2 fragment of the anti-CEA antibody MN-14
highest value of kidney uptake (mice [3]; up to 24 h p.i., no lysine): about 43 % of the injected dose/g

poly-L-lysine
Kidney uptake of 99mTc-Fab′ NP-4 (mice [8]; [17]): 43.7 ± 10.0
Kidney uptake, % control (mice [8]; [17]): 59.9 % control
Kidney uptake of 99mTc-Fab′ NP-4 (mice [8]; [18]): 41.6 ± 8.8
Kidney uptake, % control (mice [8]; [18]): 56.9 % control
